# In US20220298213A1, “IN VIVO ENGINEERED CEREBLON PROTEIN” (Vividion Therapeutics, Inc., priority 2018, published 2022):
# Read-outs that look alike come from different tables or passages of the source.
# Experiments:
# Assay type in all cases: binding
# [1] = target: T1, CRBN Cys219 (Homo sapiens, UniProt Q96SW2); experiment: Inhibition of iodoacetamide probe labeling of CRBN cysteines, cell lysate (Table 3A); conditions: read-out: % inhibition of iodoacetamide probe labeling, Cys219
# T1 construct: endogenous in cells
# T1 sequence (Q96SW2 whole entry): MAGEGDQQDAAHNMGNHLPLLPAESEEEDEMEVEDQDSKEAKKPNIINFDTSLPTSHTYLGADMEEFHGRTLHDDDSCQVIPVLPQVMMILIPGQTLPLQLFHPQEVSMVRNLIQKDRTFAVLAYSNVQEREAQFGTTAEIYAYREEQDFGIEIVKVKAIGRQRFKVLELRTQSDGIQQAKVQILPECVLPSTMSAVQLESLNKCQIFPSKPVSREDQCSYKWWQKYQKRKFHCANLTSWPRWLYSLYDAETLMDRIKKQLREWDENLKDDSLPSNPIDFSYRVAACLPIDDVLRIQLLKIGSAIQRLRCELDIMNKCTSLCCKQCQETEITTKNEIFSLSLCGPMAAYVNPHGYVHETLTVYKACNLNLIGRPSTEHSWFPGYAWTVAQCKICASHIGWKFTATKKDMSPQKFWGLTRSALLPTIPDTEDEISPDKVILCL
# Description: (§1) “X@Y” means that x % inhibition of iodoacetamide probe labeling was observed by treatment of cell lysate with the give compound in each row of the table for 1 h at a concentration of y micromolar. There was consistently high inhibition at C318 in addition to C287, which can be attributed to an allosteric inhibition.
# [2] = target: T2, CRBN Cys234 (Homo sapiens, UniProt Q96SW2); experiment: as above; conditions: read-out: % inhibition of iodoacetamide probe labeling, Cys234
# T2 construct: endogenous in cells
# T2 sequence (Q96SW2 whole entry): as above
# Description: as §1
# [3] = target: T3, CRBN Cys287 (Homo sapiens, UniProt Q96SW2); experiment: as above
# T3 construct: endogenous in cells
# T3 sequence (Q96SW2 whole entry): as above
# Description: as §1
# [4] = target: T4, CRBN Cys205 (Homo sapiens, UniProt Q96SW2); experiment: as above; conditions: read-out: % inhibition of iodoacetamide probe labeling, Cys205
# T4 construct: endogenous in cells
# T4 sequence (Q96SW2 whole entry): as above
# Description: as §1
# [5] = target: T5, CRBN Cys343 (Homo sapiens, UniProt Q96SW2); experiment: as above; conditions: read-out: % inhibition of iodoacetamide probe labeling, Cys343
# T5 construct: endogenous in cells
# T5 sequence (Q96SW2 whole entry): as above
# Description: as §1
# [6] = target: T6, CRBN Cys318 (Homo sapiens, UniProt Q96SW2); experiment: as above
# T6 construct: endogenous in cells
# T6 sequence (Q96SW2 whole entry): as above
# Description: as §1
# [7] = target: T7, BTK_481 (Homo sapiens, UniProt Q06187); experiment: Probe labeling at native and denatured states after pretreatment (Table 2); conditions: screening concentration; for inhibition of probe labeling, BTK_481, Den.: denatured state; for inhibition of probe labeling, BTK_481, Nat.: native state
# T7 construct: In each the cell lysate was pretreated with compound; endogenous in cells
# T7 sequence (Q06187 whole entry): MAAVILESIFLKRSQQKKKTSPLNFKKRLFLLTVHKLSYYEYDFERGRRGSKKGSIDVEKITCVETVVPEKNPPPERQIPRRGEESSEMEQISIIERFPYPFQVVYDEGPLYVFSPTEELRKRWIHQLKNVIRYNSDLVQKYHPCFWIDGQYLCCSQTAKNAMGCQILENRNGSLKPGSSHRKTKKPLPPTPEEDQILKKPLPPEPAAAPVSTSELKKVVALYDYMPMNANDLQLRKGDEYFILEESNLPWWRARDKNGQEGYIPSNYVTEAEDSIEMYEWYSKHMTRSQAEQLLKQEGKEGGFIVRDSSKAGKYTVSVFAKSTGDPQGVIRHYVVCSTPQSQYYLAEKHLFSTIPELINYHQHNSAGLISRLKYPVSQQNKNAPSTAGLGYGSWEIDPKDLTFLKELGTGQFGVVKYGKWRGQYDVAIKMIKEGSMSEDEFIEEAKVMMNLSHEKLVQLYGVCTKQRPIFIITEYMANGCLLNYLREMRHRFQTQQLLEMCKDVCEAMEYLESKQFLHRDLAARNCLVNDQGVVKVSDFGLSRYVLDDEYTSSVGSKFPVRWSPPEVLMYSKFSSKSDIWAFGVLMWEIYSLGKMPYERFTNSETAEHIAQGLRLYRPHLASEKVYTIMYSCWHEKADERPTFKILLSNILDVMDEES
# [8] = target: T8, CRBN_234 (Homo sapiens, UniProt Q96SW2); experiment: as above
# T8 construct: endogenous in cells; host or cells: cell lysate
# T8 sequence (Q96SW2 whole entry): as the sequence (Q96SW2 whole entry) above
# Description: (§2) To determine whether the co-inhibition of C287 and C318 was due to a direct or indirect mechanism, CRBN was pretreated with various Michael acceptor compounds and then tested for probe labeling in its native and denatured states.
# (§3) In each the cell lysate was pretreated with compound, for native state data the probe was immediately added and for denatured data the probe was added after an additional step of denaturation (schematic shown in FIG. 4).
# [9] = target: T9, CRBN_441 (Homo sapiens, UniProt Q96SW2); experiment: as above
# T9 construct: endogenous in cells; host or cells: cell lysate
# T9 sequence (Q96SW2 whole entry): as above
# Description: as §2, §3
# [10] = target: T10, CRBN_188 (Homo sapiens, UniProt Q96SW2); experiment: as above
# T10 construct: endogenous in cells; host or cells: cell lysate
# T10 sequence (Q96SW2 whole entry): as above
# Description: as §2, §3
# [11] = target: T11, CRBN_326 (Homo sapiens, UniProt Q96SW2); experiment: as above
# T11 construct: endogenous in cells; host or cells: cell lysate
# T11 sequence (Q96SW2 whole entry): as above
# Description: as §2, §3
# [12] = target: T12, CRBN_310 (Homo sapiens, UniProt Q96SW2); experiment: as above
# T12 construct: endogenous in cells; host or cells: cell lysate
# T12 sequence (Q96SW2 whole entry): as above
# Description: as §2, §3
# [13] = target: T13, CRBN_219 (Homo sapiens, UniProt Q96SW2); experiment: as above
# T13 construct: endogenous in cells; host or cells: cell lysate
# T13 sequence (Q96SW2 whole entry): as above
# Description: as §2, §3
# [14] = target: T14, CRBN_343 (Homo sapiens, UniProt Q96SW2); experiment: as above
# T14 construct: endogenous in cells; host or cells: cell lysate
# T14 sequence (Q96SW2 whole entry): as above
# Description: as §2, §3
# [15] = target: T15, CRBN_322 (Homo sapiens, UniProt Q96SW2); experiment: as above
# T15 construct: endogenous in cells; host or cells: cell lysate
# T15 sequence (Q96SW2 whole entry): as above
# Description: as §2, §3
# [16] = target: T16, CRBN_205 (Homo sapiens, UniProt Q96SW2); experiment: as above
# T16 construct: endogenous in cells; host or cells: cell lysate
# T16 sequence (Q96SW2 whole entry): as above
# Description: as §2, §3
# [17] = target: T17, TEC_449 (Homo sapiens, UniProt P42680); experiment: as above; conditions: screening concentration; for inhibition of probe labeling, TEC_449, Den.: denatured state; for inhibition of probe labeling, TEC_449, Nat.: native state
# T17 construct: In each the cell lysate was pretreated with compound; endogenous in cells
# T17 sequence (P42680 1-631): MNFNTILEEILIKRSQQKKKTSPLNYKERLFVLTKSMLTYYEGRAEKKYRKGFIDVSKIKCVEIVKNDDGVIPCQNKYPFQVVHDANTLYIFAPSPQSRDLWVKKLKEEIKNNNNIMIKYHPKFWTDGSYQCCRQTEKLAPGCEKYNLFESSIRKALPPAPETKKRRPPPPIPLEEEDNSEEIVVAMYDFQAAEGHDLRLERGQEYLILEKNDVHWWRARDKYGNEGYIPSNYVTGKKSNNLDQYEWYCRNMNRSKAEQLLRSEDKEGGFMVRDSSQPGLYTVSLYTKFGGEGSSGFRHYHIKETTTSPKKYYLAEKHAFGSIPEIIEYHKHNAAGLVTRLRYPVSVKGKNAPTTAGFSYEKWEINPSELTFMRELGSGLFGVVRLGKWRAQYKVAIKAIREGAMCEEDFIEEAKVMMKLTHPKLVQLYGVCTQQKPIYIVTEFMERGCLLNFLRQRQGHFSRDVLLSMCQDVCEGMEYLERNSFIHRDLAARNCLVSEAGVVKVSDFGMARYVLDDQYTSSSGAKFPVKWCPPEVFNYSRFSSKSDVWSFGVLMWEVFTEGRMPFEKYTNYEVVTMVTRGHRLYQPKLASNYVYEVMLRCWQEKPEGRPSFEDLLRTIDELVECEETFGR
# [18] = target: CRBN-287 (Homo sapiens, UniProt Q96SW2); experiment: as above; set-up: endogenous in cells; host or cells: cell lysate; conditions: for inhibition of probe labeling, CRBN_287, Nat.: native state, cell lysate pretreated
# CRBN-287, sequence (Q96SW2 whole entry): as the sequence (Q96SW2 whole entry) above
# Description: as §2, §3
# [19] = target: CRBN-318 (Homo sapiens, UniProt Q96SW2); experiment: as above; set-up: endogenous in cells; host or cells: cell lysate; conditions: for inhibition of probe labeling, CRBN_318, Nat.: native state, cell lysate pretreated
# CRBN-318, sequence (Q96SW2 whole entry): as the sequence (Q96SW2 whole entry) above
# Description: as §2, §3
# [20] = 0.8 micromolar, cell lysate, 1 h
# [21] = 20 micromolar, cell lysate, 1 h
# [22] = read-out: % inhibition of iodoacetamide probe labeling, Cys287
# [23] = denatured state, screening concentration
# [24] = native state, screening concentration
# [25] = denatured state, probe added after denaturation, screening concentration
"inhibition of probe labeling, BTK_481, Den. [7] [%]","inhibition of probe labeling, BTK_481, Nat. [7] [%]","inhibition of probe labeling, CRBN_234, Den. [8, 23] [%]","inhibition of probe labeling, CRBN_234, Nat. [8, 24] [%]","inhibition of probe labeling, CRBN_441, Den. [9, 23] [%]","inhibition of probe labeling, CRBN_188, Den. [10, 23] [%]","inhibition of probe labeling, CRBN_188, Nat. [10, 24] [%]","inhibition of probe labeling, CRBN_326, Den. [11, 23] [%]","inhibition of probe labeling, CRBN_310, Den. [12, 23] [%]","inhibition of probe labeling, CRBN_310, Nat. [12, 24] [%]","inhibition of probe labeling, CRBN_219, Den. [13, 23] [%]","inhibition of probe labeling, CRBN_219, Nat. [13, 24] [%]","inhibition of probe labeling, CRBN_343, Den. [14, 23] [%]","inhibition of probe labeling, CRBN_322, Den. [15, 23] [%]","inhibition of probe labeling, CRBN_322, Nat. [15, 24] [%]","inhibition of probe labeling, CRBN_205, Den. [16, 23] [%]","inhibition of probe labeling, CRBN_205, Nat. [16, 24] [%]","inhibition of probe labeling, TEC_449, Den. [17] [%]","inhibition of probe labeling, TEC_449, Nat. [17] [%]","inhibition of probe labeling, CRBN_287, Den. [18, 25] [%]",SMILES,other results
,,,,,,,,,,,,,,,,,,,,COc1ccccc1-c1cccc(OC2CN(C(=O)/C(C#N)=C/C(C)C)C2)c1 [Example A8],"inhibition at 100 µM [1]: -5%; inhibition at 500 µM [1]: 4%; inhibition at 100 µM [2]: 31%; inhibition at 500 µM [2]: 44%; inhibition at 0.8 µM [3, 20]: 80%; inhibition at 20 µM [3, 21]: 94%; inhibition at 100 µM [3, 22]: 96%; inhibition at 500 µM [3, 22]: 98%; inhibition at 100 µM [4]: 19%; inhibition at 500 µM [4]: 32%; inhibition at 100 µM [5]: 10%; inhibition at 0.8 µM [6, 20]: 76%; inhibition at 20 µM [6, 21]: 90%; inhibition at 100 µM ([6]; read-out: % inhibition of iodoacetamide probe labeling, Cys318, 100 micromolar, cell lysate, 1 h): 93%; inhibition at 500 µM ([6]; read-out: % inhibition of iodoacetamide probe labeling, Cys318, 500 micromolar, cell lysate, 1 h): 96%"
21,52,26,11,−6,−28,−18,−6,43,54,−2,−36,−5,19,25,4,−4,33,28,91,C=CC(=O)N1CCC(Oc2cc(C#N)cc(-c3ccccc3OC)c2)CC1 [drawing 205],"inhibition of probe labeling, CRBN_287, Nat. ([18]; screening concentration): 98%; inhibition of probe labeling, CRBN_318, Den. [19, 25]: 38%; inhibition of probe labeling, CRBN_318, Nat. ([19]; screening concentration): 92%"
−28,2,21,27,−22,−44,−16,−15,35,46,12,−25,−12,27,2,0,−20,−4,4,76,C=CC(=O)N1CCC(Oc2cccc(-c3ccccc3OC)c2)CC1 [drawing 206],"inhibition of probe labeling, CRBN_287, Nat. ([18]; screening concentration): 91%; inhibition of probe labeling, CRBN_318, Den. [19, 25]: 28%; inhibition of probe labeling, CRBN_318, Nat. ([19]; screening concentration): 82%"
98,97,,,,,,,,,,,,,,,,95,96,,C=CC(=O)N(c1ccccc1)c1ccc(Br)cc1 [reference compound],"inhibition of probe labeling, CRBN_234, Den. [8]: 45%; inhibition of probe labeling, CRBN_234, Nat. [8]: −4%; inhibition of probe labeling, CRBN_441, Den. [9]: −26%; inhibition of probe labeling, CRBN_188, Den. [10]: −6%; inhibition of probe labeling, CRBN_188, Nat. [10]: −36%; inhibition of probe labeling, CRBN_326, Den. [11]: −8%; inhibition of probe labeling, CRBN_310, Den. [12]: 50%; inhibition of probe labeling, CRBN_310, Nat. [12]: 2%; inhibition of probe labeling, CRBN_219, Den. [13]: 57%; inhibition of probe labeling, CRBN_219, Nat. [13]: 40%; inhibition of probe labeling, CRBN_343, Den. [14]: −10%; inhibition of probe labeling, CRBN_322, Den. [15]: 29%; inhibition of probe labeling, CRBN_322, Nat. [15]: 29%; inhibition of probe labeling, CRBN_205, Den. [16]: 13%; inhibition of probe labeling, CRBN_205, Nat. [16]: −23%; inhibition of probe labeling, CRBN_287, Den. [18]: 59%; inhibition of probe labeling, CRBN_318, Den. [19]: 53%"
